Data as given in patent US9187544B2, “Peptide modulators of angiogenesis and use thereof” (The Johns Hopkins University, priority 2007, dated 2015).

Tested on: NCI H82 lung carcinoma cell line tumor xenografts
Assay: In vivo tumor xenograft model
Details: female nude mice, 12 days, monotherapy
Protocol: To characterize the functional effects of anti-angiogenic peptides in mouse models, tumor xenografts were generated in female nude mice using the NCI H82 lung carcinoma cell line. This cell line was chosen because its aggressiveness results in rapid tumor growth. Three peptides, a collagen derived, a CXC chemokine derived and a TSP1 containing protein derived peptide were administered once a day, intraperitoneally (i.p.), at doses 10 and 20 mg/kg/day, in a 200 microliter solution injection as individual agents and as a combination. The CXC protein GRO-α/CXCL1 derived peptide (human sequence: […] (SEQ ID NO: 2445); mouse sequence: […] (SEQ ID NO: 2441)), the TSP1 repeat-containing protein WISP-1 derived peptide (human sequence: GPWEPCSVTCSKGTRTRRR (SEQ ID NO: 2444); mouse sequence: GPWGPCSVTCSKGTQIRQR (SEQ ID NO: 2440)), and the type IV collagen alpha5 fibril derived peptide (human sequence: […] (SEQ ID NO: 2442) is the same as mouse sequence: […] (SEQ ID NO: 2443)). An equivalent volume of PBS was injected as control. The injections were repeated for 12 days.
A population of 10^6 cells were washed twice in PBS and gently resuspended to generate a single cell suspension. The cells were mixed with Matrigel (BD Biosciences) in a final 60% cell solution. Subsequently, the cells were injected into the flank area of immunosuppressed nude mice in a total volume of 100 μl. Following growth incubation of 5 to 6 days, the tumor size volume was calculated by measurements of tumor dimensions with calipers. Tumor growth was monitored to an initial average size of 100 mm^3, which developed within 6 days after inoculation. Peptides were administered once a day, intraperitoneally (i.p.), in doses of 10 mg/kg and 20 mg/kg. In the case of testing a combination each peptide was injected in a two day cycle of a different peptide per day. Equivalent volume of PBS solution was injected as control. The injections were continued for up to […]. A total of six animals per group were used for the experiments per peptide per concentration.

Sequence	development of tumors (tumor volume) (10 mg/kg/day i.p. once a day)	development of tumors (tumor volume) (20 mg/kg/day i.p. once a day)
GPWEPCSVTCSKGTRTRRR	suppressed the development of tumors	suppressed the development of tumors
LRRFSTMPFMFCNINNVCNF	suppressed the development of tumors	suppressed the development of tumors
NGRKACLNPASPIVKKIIEKMLNS [CXC protein GRO-α/CXCL1 derived peptide]	suppressed the development of tumors	suppressed the development of tumors
